Laboratory results as given in PubChem BioAssay AID330 (DTP/NCI, 2004).
Values joined by “and” are separate entries in the source; they are usually repeats but may differ in a detail not shown here. Identical values can stand only once. Inconclusive results and toxic doses are left out.

Test system: P388 leukemia ip, CD2F1 mice, survival T/C
Experiment: NCI In Vivo Anticancer Drug Screen. Data for tumor model P388 Leukemia (intraperitoneal) in CD2F1 (CDF1) mice
Conditions: endpoint: median survival time, higher = longer survival
Summary of the method: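 Mice carrying the transplanted tumor received test compound or vehicle. Survival was recorded in each group, and the value is the treated-group measurement divided by that of the vehicle-treated control group.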

[1] = dose: 50.0 mg/kg/injection, schedule: Q01DX001 (ip), vehicle: Klucel (hydroxypropylcellulose) (HPC)
[2] = dose: 100.0 mg/kg/injection, schedule: Q01DX001 (ip), vehicle: Klucel (hydroxypropylcellulose) (HPC)
[3] = dose: 60.0 mg/kg/injection, schedule: Q01DX005 (ip), vehicle: Klucel (hydroxypropylcellulose) (HPC)
[4] = dose: 120.0 mg/kg/injection, schedule: Q01DX005 (ip), vehicle: Klucel (hydroxypropylcellulose) (HPC)
[5] = dose: 50.0 mg/kg/injection, schedule: Q01DX005 (ip), vehicle: saline with Tween-80
[6] = dose: 200.0 mg/kg/injection, schedule: Q01DX005 (ip), vehicle: saline with Tween-80
[7] = dose: 60.0 mg/kg/injection, schedule: Q01DX005 (ip), vehicle: saline with Tween-80
[8] = dose: 120.0 mg/kg/injection, schedule: Q01DX005 (ip), vehicle: saline with Tween-80
[9] = dose: 240.0 mg/kg/injection, schedule: Q01DX005 (ip), vehicle: saline with Tween-80
[10] = dose: 100.0 mg/kg/injection, schedule: Q01DX001 (ip), vehicle: saline
[11] = dose: 200.0 mg/kg/injection, schedule: Q01DX001 (ip), vehicle: saline
[12] = dose: 100.0 mg/kg/injection, schedule: Q01DX009 (ip), vehicle: saline with Tween-80
[13] = dose: 50.0 mg/kg/injection, schedule: Q01DX009 (ip), vehicle: Klucel (hydroxypropylcellulose) (HPC)
[14] = dose: 200.0 mg/kg/injection, schedule: Q01DX009 (ip), vehicle: Klucel (hydroxypropylcellulose) (HPC)

CC(C)C(=NN/C=N/S(C)(=O)=O)C(C)C
T/C (dose: 25.0 mg/kg/injection, schedule: Q01DX001 (ip), vehicle: Klucel (hydroxypropylcellulose) (HPC)): 92 % of control | T/C [1]: 112 % of control | T/C [2]: 97 % of control

O=C(Nc1ccccc1)c1nn(-c2cc(S(=O)(=O)[O-])ccc2Cl)[n+](-c2ccccc2Cl)n1
T/C [3]: 101 % of control | T/C [4]: 101 % of control

CC[C@]1(O)Cc2c(O)c3c(c(O)c2[C@@H](OC2CC(N)C(O)C(C)O2)C1)C(=O)c1c(OC)cccc1C3=O (some centres undefined)
T/C (dose: 1.2 mg/kg/injection, schedule: Q04DX003 (ip), vehicle: water): 117 % of control | T/C (dose: 1.56 mg/kg/injection, schedule: Q01DX009 (ip), vehicle: water): 151 % of control and 169 % of control | T/C (dose: 2.4 mg/kg/injection, schedule: Q04DX003 (ip), vehicle: water): 119 % of control | T/C (dose: 3.13 mg/kg/injection, schedule: Q01DX009 (ip), vehicle: water): 156 % of control and 163 % of control | T/C (dose: 6.25 mg/kg/injection, schedule: Q01DX009 (ip), vehicle: water): 95 % of control | T/C (dose: 37.5 mg/kg/injection, schedule: Q04DX003 (ip), vehicle: water): 103 % of control

COc1cccc2c1C(=O)c1c(O)c3c(c(O)c1C2=O)C[C@@](O)(/C(C)=N/NC(=O)c1ccc(Cl)cc1)C[C@@H]3OC1CC(N)C(O)C(C)O1 (some centres undefined)
T/C (dose: 0.12 mg/kg/injection, schedule: Q01DX009 (ip), vehicle: water): 110 % of control | T/C (dose: 0.5 mg/kg/injection, schedule: Q01DX009 (ip), vehicle: water): 155 % of control | T/C (dose: 1.0 mg/kg/injection, schedule: Q01DX009 (ip), vehicle: water): 180 % of control | T/C (dose: 2.0 mg/kg/injection, schedule: Q01DX009 (ip), vehicle: water): 161 % of control and 166 % of control | T/C (dose: 4.0 mg/kg/injection, schedule: Q01DX009 (ip), vehicle: water): 211 % of control | T/C (dose: 5.0 mg/kg/injection, schedule: Q01DX001 (ip), vehicle: water): 181 % of control | T/C (dose: 8.0 mg/kg/injection, schedule: Q01DX009 (ip), vehicle: water): 109 % of control | T/C (dose: 10.0 mg/kg/injection, schedule: Q01DX001 (ip), vehicle: water): 192 % of control | T/C (dose: 20.0 mg/kg/injection, schedule: Q01DX001 (ip), vehicle: water): 108 % of control

CCOC(=O)CC/C(=C/c1cccc2cc(OC)ccc12)[N+](=O)[O-]
T/C [1]: 100 % of control | T/C [2]: 101 % of control | T/C (dose: 200.0 mg/kg/injection, schedule: Q01DX001 (ip), vehicle: Klucel (hydroxypropylcellulose) (HPC)): 104 % of control

COc1ccc(CN2CC(=O)N3Cc4ccccc4CN3C(=O)C2)cc1
T/C [5]: 103 % of control | T/C (dose: 100.0 mg/kg/injection, schedule: Q01DX005 (ip), vehicle: saline with Tween-80): 103 % of control | T/C [6]: 103 % of control

COC(=O)c1cc2c(cc1C(=O)OC)C(=O)c1ccccc1C2=O
T/C [7]: 100 % of control | T/C [8]: 101 % of control | T/C [9]: 92 % of control

CC1=CC(O)(c2nc3ccccc3s2)CC(C)(C)C1 (centres undefined)
T/C [3]: 93 % of control | T/C [4]: 94 % of control | T/C (dose: 240.0 mg/kg/injection, schedule: Q01DX005 (ip), vehicle: Klucel (hydroxypropylcellulose) (HPC)): 92 % of control

C#CCCCCCC#CCCCCCC#CC(=O)O
T/C [10]: 104 % of control | T/C [11]: 101 % of control

O=C(Nc1ccc(Cl)cc1)Nc1nnc(COc2ccc(Cl)c(Cl)c2)o1
T/C (dose: 15.0 mg/kg/injection, schedule: Q01DX005 (ip), vehicle: saline with Tween-80): 87 % of control and 90 % of control | T/C (dose: 30.0 mg/kg/injection, schedule: Q01DX005 (ip), vehicle: saline with Tween-80): 90 % of control | T/C [7]: 89 % of control and 93 % of control | T/C [8]: 98 % of control | T/C [9]: 91 % of control

CC(=O)c1cn[nH]c1NC(=O)c1ccccc1
T/C (dose: 8.75 mg/kg/injection, schedule: Q01DX005 (ip), vehicle: Klucel (hydroxypropylcellulose) (HPC)): 103 % of control | T/C (dose: 17.5 mg/kg/injection, schedule: Q01DX005 (ip), vehicle: Klucel (hydroxypropylcellulose) (HPC)): 103 % of control | T/C (dose: 35.0 mg/kg/injection, schedule: Q01DX005 (ip), vehicle: Klucel (hydroxypropylcellulose) (HPC)): 95 % of control

CC(C)Cc1nccs1
T/C (dose: 25.0 mg/kg/injection, schedule: Q01DX009 (ip), vehicle: saline with Tween-80): 105 % of control | T/C (dose: 50.0 mg/kg/injection, schedule: Q01DX009 (ip), vehicle: saline with Tween-80): 105 % of control and 110 % of control | T/C [12]: 106 % of control and 117 % of control | T/C (dose: 200.0 mg/kg/injection, schedule: Q01DX009 (ip), vehicle: saline with Tween-80): 118 % of control

O=c1c(-c2ccccc2)nnc2sc(-c3cccc(Cl)c3)nn12
T/C (dose: 50.0 mg/kg/injection, schedule: Q04DX002 (ip), vehicle: Klucel (hydroxypropylcellulose) (HPC)): 98 % of control | T/C (dose: 100.0 mg/kg/injection, schedule: Q04DX002 (ip), vehicle: Klucel (hydroxypropylcellulose) (HPC)): 93 % of control | T/C (dose: 200.0 mg/kg/injection, schedule: Q04DX002 (ip), vehicle: Klucel (hydroxypropylcellulose) (HPC)): 90 % of control

Nc1nc(-c2ccccc2)c(-c2ccccc2)n1C(=O)NCCCl
T/C (dose: 12.5 mg/kg/injection, schedule: Q04DX002 (ip), vehicle: saline with Tween-80): 114 % of control | T/C (dose: 25.0 mg/kg/injection, schedule: Q04DX002 (ip), vehicle: saline with Tween-80): 113 % of control | T/C (dose: 50.0 mg/kg/injection, schedule: Q04DX002 (ip), vehicle: saline with Tween-80): 113 % of control

COc1ccc(C(N)Cc2ccccc2)cc1 (centres undefined)
T/C (dose: 50.0 mg/kg/injection, schedule: Q01DX005 (ip), vehicle: Klucel (hydroxypropylcellulose) (HPC)): 92 % of control | T/C (dose: 100.0 mg/kg/injection, schedule: Q01DX005 (ip), vehicle: Klucel (hydroxypropylcellulose) (HPC)): 100 % of control | T/C (dose: 200.0 mg/kg/injection, schedule: Q01DX005 (ip), vehicle: Klucel (hydroxypropylcellulose) (HPC)): 102 % of control

CCOc1ccc(Br)cc1/C=N/NS(=O)(=O)c1ccc(C)cc1
T/C [12]: 123 % of control

Cc1ccnc(NC(O)C(Cl)(Cl)Cl)c1 (centres undefined)
T/C (dose: 25.0 mg/kg/injection, schedule: Q01DX009 (ip), vehicle: Klucel (hydroxypropylcellulose) (HPC)): 100 % of control | T/C [13]: 100 % of control | T/C (dose: 100.0 mg/kg/injection, schedule: Q01DX009 (ip), vehicle: Klucel (hydroxypropylcellulose) (HPC)): 98 % of control | T/C [14]: 100 % of control

CCCCS[Si](SC(C)(C)C)(SC(C)(C)C)SC(C)(C)C
T/C (dose: 100.0 mg/kg/injection, schedule: Q04DX002 (ip), vehicle: suspension in saline): 95 % of control | T/C (dose: 200.0 mg/kg/injection, schedule: Q04DX002 (ip), vehicle: suspension in saline): 99 % of control | T/C (dose: 400.0 mg/kg/injection, schedule: Q04DX002 (ip), vehicle: suspension in saline): 93 % of control

C=CCNc1ncnc2c1cnn2C
T/C (dose: 50.0 mg/kg/injection, schedule: Q04DX003 (ip), vehicle: saline with Tween-80): 104 % of control | T/C (dose: 100.0 mg/kg/injection, schedule: Q04DX003 (ip), vehicle: saline with Tween-80): 104 % of control

CNCc1cccc2ccnc(C)c12
T/C (dose: 100.0 mg/kg/injection, schedule: Q01DX001 (ip), vehicle: saline with Tween-80): 100 % of control | T/C (dose: 200.0 mg/kg/injection, schedule: Q01DX001 (ip), vehicle: saline with Tween-80): 99 % of control | T/C (dose: 400.0 mg/kg/injection, schedule: Q01DX001 (ip), vehicle: saline with Tween-80): 96 % of control

O=C(NC(O)C(Cl)(Cl)Cl)c1ccccc1 (centres undefined)
T/C (dose: 12.5 mg/kg/injection, schedule: Q01DX005 (ip), vehicle: saline with Tween-80): 95 % of control | T/C (dose: 25.0 mg/kg/injection, schedule: Q01DX005 (ip), vehicle: saline with Tween-80): 102 % of control | T/C [5]: 100 % of control | T/C [6]: 96 % of control

N=CC1=C(O)CCOC1=O
T/C [10]: 99 % of control | T/C [11]: 99 % of control | T/C (dose: 400.0 mg/kg/injection, schedule: Q01DX001 (ip), vehicle: saline): 100 % of control

CC[N+](C)(CC)C/C(C)=C(/c1ccccc1S(=O)(=O)N(C)C)C(C)C[N+](C)(CC)CC (centres undefined)
T/C (dose: 12.5 mg/kg/injection, schedule: Q04DX003 (ip), vehicle: saline): 102 % of control | T/C (dose: 25.0 mg/kg/injection, schedule: Q04DX003 (ip), vehicle: saline): 103 % of control

CC(=O)Nc1ccc(OCCOC(=O)Nc2c(Cl)cccc2Cl)cc1
T/C [13]: 92 % of control | T/C [14]: 92 % of control
